Counter-ions that a name gives are not always drawn. Like-named read-outs stand apart in the source and are kept apart here.
Tested on: cholesterol biosynthesis in HepG2 cells
Assay: Metabolic labeling of HepG2 cells with [3H]acetate; radio-HPLC sterol profile (inhibition of cholesterol biosynthesis)
Type: cell-based, human
Conditions: HepG2; for activity at 10 µM: Homo sapiens, 24 h, Table I, sterol level normalized to normal medium (1.00), mean of 4 experiments; for activity at 10 µM / FF-MAS / cholesterol / desmosterol / lanosterol / lathosterol / zymosterol+7-dehydrocholesterol: 10 μM compound; for FF-MAS / cholesterol / desmosterol / lanosterol / lathosterol / zymosterol+7-dehydrocholesterol: Table II (arranged by sterol profile), normalized to normal medium (1.00)
Procedure: In accordance with the aims of the invention, the effect of the novel compounds on inhibition of cholesterol biosynthesis is assessed. An ex vivo method of metabolic labeling of immortal human hepatocytes is employed. The radioactively labeled early precursor of cholesterol [3H]acetate is added to cells with or without addition of an active new compound.
An ex vivo method of metabolic labeling of immortal human hepatocytes is employed. The radioactively labeled early precursor of cholesterol [3H]acetate is added to cells with or without addition of an active compound.
Cell culture incubation with potential inhibitors of cholesterol biosynthesis and statins Human hepatoma cell line (HepG2-ATCC No. HB-8065) is split in the recommended ratio (1:2-3) into 75 cm^2 cell flasks using two flasks per experimental condition. Cells are incubated at 37° C. with 5% CO2 in Dulbeco's modified Eagle medium (DMEM high (Sigma)) containing 5% calf serum (Sigma) and 1% L-glutamine (Sigma). After 24-hours-culturing in the growth medium, the medium is replaced with the one supplemented with 10 μM concentration of a LK compound, potential inhibitor of cholesterol biosynthesis. 10 μM solution of atorvastatin, inhibitor of HMG-CoA reductase, serves as a positive control.
After 24 hours the growth medium is changed and [^3H]acetate (NEN™ Life Science Products) added in a concentration of 40 μCi per ml of the medium (400 μCi per flask). After 4 hours cells are harvested using 2 ml of trypsin (Sigma) and the cell pellet is resuspended in 1 ml of distilled water. Cells are homogenized using the freeze and thaw method. From cell homogenate sterols are extracted and protein concentration determined using the Bio-Rad reagent.
Homogenates are transferred into 4 ml glass vial and sterols are extracted in 3 ml of extraction solution (75% n-heptane: 25% isopropanol (vol./vol.)) with ergosterol as an internal standard. For better extraction 100 μl of 0.3M NaH2PO4 (pH=1.0) is added. Closed vials are vigorously shaken (1800 rpm) for 2 hours. After extraction procedure vials are centrifuged (2000 g, 10 min) and the organic phase is transferred to fresh conical glass tubes. Extraction procedure is repeated using 1 ml of extraction solution for 15 min. Organic phases are pooled. Primary extracts are dried in vacuum centrifuge, redissolved in 3 ml of n-heptane, and incubated for 10 min at room temperature with mild shaking. After centrifugation (10 min, 2000 g) extracts are transferred into fresh glass tubes and stored in dark and cold.
The organic phase is dried, reconstituted in mobile phase for reversed phase HPLC separation and loaded onto a-HPLC column, Prism-RPN, 5 μm, 250×4,6 mm running in 100% acetonitrile at 1.00 ml/min at 40° C. temperature. Scintillation liquid is added after UV detection at 30 ml/h, at room temperature, to evaluate tritium labeled sterols on a radio detector.
Sterols are determined by comparing the eluted peaks with runs of commercial standards of lanosterol, ergosterol, desmosterol, zymosterol, 7-dehydrocholesterol, lathosterol and cholesterol or laboratory standards (FF-MAS-4,4-Dimethylcholesta-8(9),14,24-triene-3β-ol- and T-MAS-4,4-Dimethylcholesta8(9),24,diene-3,6-ol, Laboratory of Reproductive Biology, The Juliane Marie Center for Children, Women and Reproduction, University Hospital of Copenhagen, DK-2100 Copenhagen, Denmark). Results were normalized on ergosterol quantity and protein concentration. Results are presented as a mean from 4 separated experiments.
The influence of a 10 μM solution of novel LK-substances on cholesterol biosynthesis in the assay on HepG2 cells is presented in Table I. Compounds are arranged according to the building blocks, three of them are 2-pyridineethanols, 2-pyridineethylpiperazines and pyridinemethylpiperazines.
Normal medium pertains to cell cultures without a compound of the invention. Its sterol levels were used for normalization. 10 μM solution of atorvastatin serves as a positive control.

[1] = read-out: zymosterol+7-dehydrocholesterol

Q: Which results are given for `OC(CN1CCN(CCc2ccccc2)CC1)c1cccnc1` (centres unmarked) [LK-980, 2-(4-Phenethylpiperazine-1-yl)-1-(pyridine3-yl)-1-ethanol trihydrobromide]?
A: activity at 10 µM (read-out: FF-MAS): 254%; activity at 10 µM (read-out: cholesterol): 5%; activity at 10 µM (read-out: desmosterol): 0%; activity at 10 µM (read-out: lanosterol): 96%; activity at 10 µM (read-out: lathosterol): 49%; activity at 10 µM [1]: 102%; FF-MAS: 2.54; cholesterol: 0.05; desmosterol: 0.00; lanosterol: 0.96; lathosterol: 0.49; zymosterol+7-dehydrocholesterol: 1.02

Q: `c1ccc(CCN2CCN(CCc3cccnc3)CC2)cc1` [LK-9100, 1-Phenethyl-4-(2-(pyridine-3-yl)ethyl)piperazine trihydrobromide] was tested. Which activity at 10 µM (read-out: FF-MAS) did it give?
A: 241%

Q: And the activity at 10 µM (read-out: cholesterol)?
A: 0%

Q: What about the activity at 10 µM (read-out: desmosterol) of the same compound?
A: 0%

Q: And the activity at 10 µM (read-out: lanosterol)?
A: 83%

Q: What about the activity at 10 µM (read-out: lathosterol) of the same compound?
A: 30%

Q: What about the activity at 10 µM [1] of the same compound?
A: 74%

Q: And the FF-MAS?
A: 2.41

Q: And the cholesterol?
A: 0.00

Q: What about the desmosterol of the same compound?
A: 0.00

Q: And the lanosterol?
A: 0.83

Q: What about the lathosterol of the same compound?
A: 0.30

Q: What about the “zymosterol+7-dehydrocholesterol” value of the same compound?
A: 0.74

Q: With `O=C(Cc1cccnc1)N1CCN(CCc2ccccc2)CC1` [LK-9101B, 1-(4-Phenethylpiperazin-1-yl)-2-(pyridine-3-yl)ethanone] as the compound, how does the activity at 10 µM (read-out: FF-MAS) read?
A: 136%

Q: What about the activity at 10 µM (read-out: cholesterol) of the same compound?
A: 12%

Q: And the activity at 10 µM (read-out: desmosterol)?
A: 10%

Q: And the activity at 10 µM (read-out: lanosterol)?
A: 94%

Q: What about the activity at 10 µM (read-out: lathosterol) of the same compound?
A: 54%

Q: What about the activity at 10 µM [1] of the same compound?
A: 155%

Q: What about the FF-MAS of the same compound?
A: 1.36

Q: What about the cholesterol of the same compound?
A: 0.12

Q: What about the desmosterol of the same compound?
A: 0.10

Q: What about the lanosterol of the same compound?
A: 0.94

Q: And the lathosterol?
A: 0.54

Q: And the “zymosterol+7-dehydrocholesterol” value?
A: 1.55

Q: How did the activity at 10 µM (read-out: FF-MAS) turn out when `COc1ccc(CN2CCN(CCc3ccccc3)CC2)cn1` [LK-9106, 1-((6-Methoxypyridin-3-yl)methyl)-4-phenethylpiperazine trihydrobromide] was run?
A: 200%

Q: What about the activity at 10 µM (read-out: cholesterol) of the same compound?
A: 0%

Q: What about the activity at 10 µM (read-out: desmosterol) of the same compound?
A: 0%

Q: What about the activity at 10 µM (read-out: lanosterol) of the same compound?
A: 52%

Q: And the activity at 10 µM (read-out: lathosterol)?
A: 31%

Q: And the activity at 10 µM [1]?
A: 46%

Q: What about the FF-MAS of the same compound?
A: 2.00

Q: What about the cholesterol of the same compound?
A: 0.00

Q: And the desmosterol?
A: 0.00

Q: What about the lanosterol of the same compound?
A: 0.52

Q: What about the lathosterol of the same compound?
A: 0.31

Q: What about the “zymosterol+7-dehydrocholesterol” value of the same compound?
A: 0.46

Q: With `FC(F)(F)c1ccc(CN2CCN(CCc3ccccc3)CC2)cn1` [LK-9107, 1-Phenethyl-4-((6(trifluoromethyl)pyridine-3-yl)methyl)piperazine trihydrobromide] as the compound, how does the “sterol profile (in words)” value (10 μM, preferred profile: lowered cholesterol, no accumulation of lanosterol and post-lanosterol intermediates) read?
A: meets these criteria in considerable extent

Q: What about the activity at 10 µM (read-out: FF-MAS) of the same compound?
A: 129%

Q: And the activity at 10 µM (read-out: cholesterol)?
A: 0%

Q: And the activity at 10 µM (read-out: desmosterol)?
A: 0%

Q: And the activity at 10 µM (read-out: lanosterol)?
A: 36%

Q: And the activity at 10 µM (read-out: lathosterol)?
A: 11%

Q: And the activity at 10 µM [1]?
A: 20%

Q: And the FF-MAS?
A: 1.29

Q: And the cholesterol?
A: 0.00

Q: And the desmosterol?
A: 0.00

Q: What about the lanosterol of the same compound?
A: 0.36

Q: What about the lathosterol of the same compound?
A: 0.11

Q: What about the “zymosterol+7-dehydrocholesterol” value of the same compound?
A: 0.20

Q: `c1ccc(CCN2CCN(Cc3cccnc3)CC2)cc1` [LK-9108, 1-Phenethyl-4-(pyridine-3-ylmethyl)piperazine trihydrobromide] was tested. Which activity at 10 µM (read-out: FF-MAS) did it give?
A: 310%

Q: What about the activity at 10 µM (read-out: cholesterol) of the same compound?
A: 0%

Q: And the activity at 10 µM (read-out: desmosterol)?
A: 0%

Q: What about the activity at 10 µM (read-out: lanosterol) of the same compound?
A: 110%

Q: And the activity at 10 µM (read-out: lathosterol)?
A: 74%

Q: And the activity at 10 µM [1]?
A: 140%

Q: And the FF-MAS?
A: 3.10

Q: What about the cholesterol of the same compound?
A: 0.00

Q: And the desmosterol?
A: 0.00

Q: What about the lanosterol of the same compound?
A: 1.10

Q: What about the lathosterol of the same compound?
A: 0.74

Q: What about the “zymosterol+7-dehydrocholesterol” value of the same compound?
A: 1.40

Q: Which “FF-MAS accumulation (in words)” value (10 μM) does the source give for `c1ccc(CCN2CCN(Cc3ccc(N4CCOCC4)nc3)CC2)cc1` [LK-9109B, 4-(5-((4-Phenethylpiperazin-1-yl)methyl)pyridine-2-yl)morpholine] here?
A: notably accumulate FF-MAS

Q: And the activity at 10 µM (read-out: FF-MAS)?
A: 650%

Q: What about the activity at 10 µM (read-out: cholesterol) of the same compound?
A: 0%

Q: And the activity at 10 µM (read-out: desmosterol)?
A: 29%

Q: What about the activity at 10 µM (read-out: lanosterol) of the same compound?
A: 95%

Q: What about the activity at 10 µM (read-out: lathosterol) of the same compound?
A: 9%

Q: And the activity at 10 µM [1]?
A: 100%

Q: What about the FF-MAS of the same compound?
A: 6.50

Q: And the cholesterol?
A: 0.00

Q: What about the desmosterol of the same compound?
A: 0.29

Q: And the lanosterol?
A: 0.95

Q: And the lathosterol?
A: 0.09

Q: And the “zymosterol+7-dehydrocholesterol” value?
A: 1.00

Source: patent publication US20090018118A1, “HETEROCYCLIC COMPOUNDS” (priority 2005, published 2009)
